Common to all, as to assay type: cell-based, Hepatitis C virus (HCV)
Experiment [1] has as its system HCVcc JFH-1. Put plainly: Acute HCVcc infection of Huh7 cells, HCV RNA by RT-qPCR. The method, then:
For experiments in growing cells, Huh7 cells were seeded 24 hours prior to use at 4×10^3 cells in each well of a 96-well plate (BD Biosciences, San Jose, Calif.). For experiments in non-growing cells, Huh7 cells were seeded in 96-well BIOCOAT culture plates (BD Biosciences) at a density of 8×10^3 cells/well in cDMEM. Upon reaching 90% confluence, media was replaced with 200 μl cDMEM supplemented with 1% (v/v) DMSO (Sigma), and cells were cultured for an additional 20 days, replacing medium every 2 days (Sainz, Jr. & Chisari (2006) J. Virol. 80:10253-7; Choi, et al. (2009) Xenobiotica 39:205-17). Cells were infected with HCVcc JFH-1 at an MOI of 1.0 or 0.1 FFU/cell for 12 hours. Cells were mock-treated or treated with increasing concentrations of ezetimibe 6 hours prior to infection (PRE), during the time of infection for 12 hours (CO), or immediately following infection for 60 hours (POST). For RT-qPCR analysis, total cellular RNA was extracted in 1× Nucleic Acid Purification Lysis Solution (Applied Biosystems, Foster City, Calif.) from triplicate wells at indicated times post infection. For HCV E2-positive foci assay analysis, medium was removed and cells were fixed with 4% paraformaldehyde (w/v) (Sigma) 72 hours post-infection and immunohistochemical staining for HCV E2 was performed as described herein.
Total cellular RNA was purified using an ABI PRISM™ 6100 Nucleic Acid PrepStation (Applied Biosystems), as per the manufacturer's instructions. One μg of purified RNA was used for cDNA synthesis using the TAQMAN reverse transcription reagents (Applied Biosystems), followed by SYBR green RT-qPCR using an Applied Biosystems 7300 real-time thermocycler (Applied Biosystems). […] HCV JFH-1 and human GAPDH RNA transcript levels were determined relative to a standard curve derived from serial dilutions of plasmid containing the JFH-1 HCV cDNA or the human GAPDH coding sequence, respectively. […]
Likewise dose-dependent and time-of-addition-dependent inhibition of HCV infection was observed when HCV RNA levels were quantified by RT-qPCR 24, 48 and 72 hours p.i.
A general note: Quantitative PCR measures a nucleic acid by following its amplification.

Experiment [2] deals with HCVcc JFH-1. Description: Chronic HCVcc infection in growing Huh7 cells, long-term treatment, RT-qPCR (FIG. 2). The note with it: alone, throughout ~70 days of treatment. The method, then: Cultures of growing Huh7 cells were inoculated with HCVcc JFH-1 at an MOT of 0.01 FFU/cell. Infected cultures were maintained for an additional 10 days to allow HCV RNA to reach steady-state levels. FIG. 2A, Cultures were mock treated, treated with ezetimibe alone (30 μM), IFN-α (100 U/ml) alone, or ezetimibe (30 μM) plus IFN-α (100 U/ml) in combination. Treatments were maintained as cultures were passaged. FIG. 2B, After 70 days IFN-α or combination ezetimibe plus IFN-α treatment, treatment was either continued (open shapes) or discontinued (filled shapes). […] Results are graphed as means±s.e.m. for triplicate samples. The data presented are representative of two independent experiments.
For experiments in growing cells, Huh7 cells seeded at 1×10^6 cells in a T75 cell culture flask (Corning) were infected with JFH-1 HCVcc at a MOI of 0.01 FFU/cell and subsequently cultured for 10 days to allow HCV RNA to reach steady-state levels. On day 10 post-infection, cells were split 1:4 and re-plated into T25 culture flasks (Corning). Twenty four hours post seeding, individual flasks were mock-treated with cDMEM or treated with cDMEM containing IFN-α (100 U/ml), ezetimibe (30 μM) or a combination of both IFN-α (100 U/ml) and ezetimibe (30 μM). Throughout the course of the experiment, fresh media with treatments was replenished every two days and cells were trypsinized just before reaching confluence and re-plated at a dilution of 1:3 to maintain active cell growth. […]
Total cellular RNA was purified using an ABI PRISM™ 6100 Nucleic Acid PrepStation (Applied Biosystems), as per the manufacturer's instructions. […] HCV JFH-1 and human GAPDH RNA transcript levels were determined relative to a standard curve derived from serial dilutions of plasmid containing the JFH-1 HCV cDNA or the human GAPDH coding sequence, respectively. […]
To confirm HCV clearance, drug treatments were subsequently discontinued on day 70 and HCV RNA levels were monitored for an additional 30 days.

In another experiment the test system is HCV. Put plainly: Chronic HCV infection treated with IFN-β and ezetimibe, weekly RT-qPCR for 8 weeks. The note with it: alone, during 8 weeks. An excerpt:
Intracellular RNA was collected from triplicate wells weekly for 8 weeks post-treatment and HCV RNA was quantified by RT-qPCR.

The values that follow come from patent US9034863B2, “Compositions and methods for inhibiting entry of a hepatic virus” (The Board of Trustees of the University of Illinois, priority 2008, dated 2015).

For `O=C1[C@H](CC[C@H](O)c2ccc(F)cc2)[C@@H](c2ccc(O)cc2)N1c1ccc(F)cc1` [ezetimibe, 1-(4-fluorophenyl)-(3R)-[3-(4-fluorophenyl)-(3S)-hydroxypropyl]-(45)-(4-hydroxyphenyl)-2-azetidinone], the “inhibition of HCV infection (HCV RNA levels)” value with HCVcc JFH-1 [1] (addition post-infection, 72 hours p.i.) is “ineffective”; in the experiment with HCVcc JFH-1 [1] (co-treatment) it was “potently inhibited HCV infection”. Besides, in the experiment with HCVcc JFH-1 [1] (pre-treatment with 25 μM for 6 hours before infection), the “protection of cells from subsequent infection, duration” value is given as “at least 48 hours”. For the same molecule, in the experiment with HCVcc JFH-1 [2], the “intracellular HCV steady-state RNA levels” value is reported as “did not reduce”. The “steady-state intracellular HCV RNA levels” value in the experiment with HCV is on record as “did not reduce HCV infection”.
